Assay results published in patent US20100311642A1, “USE OF V2 RECEPTOR ANTAGONISTS IN COMBINATION WITH VASO PRESSINERGIC AGNOSTS” (Ferring B.V., priority 2007, published 2010).
Entries after “also recorded” stand apart in the source; their conditions may differ. Each block holds one compound with its values, some of them ahead of it. Positions of bridges follow the written chain, without caps; N, C: chain ends. Residues, ends and D or L forms follow the SMILES beside them.

Key:
rat V2 receptor (rV2R) [1] = biological target: T1, rat V2 receptor (rV2R) (Rattus norvegicus, UniProt Q00788); experiment: Agonist transcriptional reporter gene assay, rat V2 receptor; assay type: cell-based; details: rV2, HEK-293 reporter gene
T1 construct: expressed in transfected cells; host or cells: HEK-293

sheep model of sepsis = experiment: Sheep model of sepsis (smoke inhalation + Pseudomonas aeruginosa); assay type: in vivo; details: septic sheep, continuous i.v. infusion titrated, 24 hours
Excerpt: A. Description of Model & Experimental Design • Septic shock is caused by hypotension secondary to vasodilation. […] The combination of a selective V2 receptor agonist, desmopressin, and a selective V1a receptor agonist models to some extent the non-selective V1a/V2 receptor agonist activity of vasopressin and other related compounds having non-selective activity.
Method: Sheep are surgically instrumented ahead of the study. After obtaining baseline data, they are anesthetized and insufflated with 48 breaths of cotton smoke and 10^11 colony forming units of Pseudomonas aeruginosa instilled into their airways via a tracheostomy. The sheep are then placed on a ventilator and awakened for the study. They are resuscitated with Ringer's solution to maintain left atrial and central venous pressures and hematocrit at baseline levels. If, despite fluid management, mean arterial pressure (MAP) falls by 10 mm Hg from baseline, a continuous intravenous infusion of AVP, the selective V1a receptor agonist, or the selective V1a receptor agonist+the selective V2 agonist desmopressin is initiated and titrated to keep MAP within this limit, except in a septic control group and in a non-septic sham group. Parameters measured include Mean Arterial Pressure (a measure of vasodilation/hypotension) and Fluid Balance (a measure of vascular leak).
Additional information about sepsis model and method available in Murakami K, Bjertnaes L T, Schmalstieg F C, McGuire R, Cox R A, Hawkins H K, Herndon D N, Traber L D, Traber D L (2002): A novel animal model of sepsis after acute lung injury in sheep. Crit. Care Med, 30:2083-2090.

[2] = biological target: T2, human V1a receptor (hV1aR) (Homo sapiens, UniProt P37288); experiment: Agonist transcriptional reporter gene assay, human V1a receptor; assay type: cell-based; details: hV1a, HEK-293 reporter gene; for EC50: 5 hours
T2 construct: expressed in transfected cells; host or cells: HEK-293

human V2 receptor (hV2R) [3] = biological target: T3, human V2 receptor (hV2R) (Homo sapiens, UniProt P30518); experiment: Agonist transcriptional reporter gene assay, human V2 receptor; assay type: cell-based; details: hV2, HEK-293 reporter gene; for EC50: 5 hours
T3 construct: expressed in transfected cells; host or cells: HEK-293

rat V1a receptor (rV1aR) [4] = biological target: T4, rat V1a receptor (rV1aR) (Rattus norvegicus, UniProt P30560); experiment: Agonist transcriptional reporter gene assay, rat V1a receptor; assay type: cell-based; details: rV1a, HEK-293 reporter gene
T4 construct: expressed in transfected cells; host or cells: HEK-293

[5] = biological target: T2, human V1a receptor (hV1aR); experiment: Antagonist transcriptional reporter gene assay, human V1a receptor; assay type: cell-based; details: hV1a, HEK-293 reporter gene, vs AVP
Description: (§1) Agonist activity of compounds on the human V1a receptor (hV1aR) and the rat V1a receptor (rV 1 aR) was determined in a transcriptional reporter gene assay in which HEK-293 cells were transiently co-transfected with either the human or rat V1a receptor, and a reporter DNA containing intracellular calcium responsive promoter elements regulating expression of firefly luciferase.
(§2) Antagonist activity of compounds on the human V1a receptor (hV1aR) and the rat V1a receptor (rV 1 aR) was determined in a transcriptional reporter gene assay as in section III.A; see Boss, V. et al. supra. […] Ki values were calculated from IC50 values.

rat V1a receptor (rV1aR) [6] = biological target: T4, rat V1a receptor (rV1aR); experiment: Antagonist transcriptional reporter gene assay, rat V1a receptor; assay type: cell-based; details: rV1a, HEK-293 reporter gene, vs AVP; for Ki: Ki calculated from IC50, read-out: Geomean Ki
Description: as §1, §2

human V2 receptor (hV2R) [7] = biological target: T3, human V2 receptor (hV2R); experiment: Antagonist transcriptional reporter gene assay, human V2 receptor; assay type: cell-based; details: hV2, HEK-293 reporter gene, vs AVP
Description: (§3) Agonist activity of compounds on the human V2 receptor (hV2R) and the rat V2 receptor (rV2R) was determined in a transcriptional reporter gene assay in which HEK-293 cells were transiently transfected with either the human or rat V2 receptor, and a reporter DNA containing cyclic-AMP responsive promoter elements regulating expression of firefly luciferase. See Castarion, M. J., Spevak, W., Biochem Biophys Res Commun.1994 Jan.
(§4) Antagonist activity of compounds on the human V2 receptor (hV2R) and the rat V2 receptor (rV2R) was determined in a transcriptional reporter gene assay as in section III.A; see Castañón, M. J. et al. supra. […] Ki values were calculated from IC50 values.

rat V2 receptor (rV2R) [8] = biological target: T1, rat V2 receptor (rV2R); experiment: Antagonist transcriptional reporter gene assay, rat V2 receptor; assay type: cell-based; details: rV2, HEK-293 reporter gene, vs AVP; for Ki: Ki calculated from IC50, read-out: Geomean Ki
Description: as §3, §4

[9] = test system: venular microvessels in rat mesentery; experiment: Rat mesenteric post-capillary venule permeability (hydraulic conductivity Lp, PAF); details: PAF 10 nM
Description: We tested the hypothesis that the selective V2 receptor agonist desmopressin would potentiate the increase in microvessel permeability induced by platelet activating factor [PAF], an inflammatory mediator involved in sepsis.
Method: Individual venular microvessels in rat mesentery were cannulated and perfused with mammalian Ringer containing 10 mg/ml albumin to measure hydraulic conductivity (Lp) by the modified Landis technique. The vessels were then exposed to PAF (10 nM) with monitoring of hydraulic conductivity (Lp). The same vessels are then exposed to a selective V2 receptor agonist, desmopressin, followed by a second exposure to PAF with monitoring of hydraulic conductivity (Lp).
Additional information about microvascular permeability model and method available in Curry, FE, “The Measurement of Hydraulic Conductivity”, Microcirculatory Technology, Academic Press, 1986, pp 429-446.

[10] = Ki calculated from IC50, read-out: Geomean Ki

T4 sequence (P30560 whole entry): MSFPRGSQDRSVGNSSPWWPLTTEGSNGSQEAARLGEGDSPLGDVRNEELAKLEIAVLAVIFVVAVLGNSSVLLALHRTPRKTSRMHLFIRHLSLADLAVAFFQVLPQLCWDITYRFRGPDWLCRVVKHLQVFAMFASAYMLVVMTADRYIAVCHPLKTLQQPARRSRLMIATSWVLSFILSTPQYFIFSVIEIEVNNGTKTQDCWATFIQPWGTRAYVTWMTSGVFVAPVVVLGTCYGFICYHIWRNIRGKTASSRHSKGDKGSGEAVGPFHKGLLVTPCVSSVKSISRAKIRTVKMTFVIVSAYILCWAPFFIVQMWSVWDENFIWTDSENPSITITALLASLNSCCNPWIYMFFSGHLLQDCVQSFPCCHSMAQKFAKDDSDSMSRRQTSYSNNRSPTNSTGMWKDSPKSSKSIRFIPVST
T3 sequence (P30518 whole entry): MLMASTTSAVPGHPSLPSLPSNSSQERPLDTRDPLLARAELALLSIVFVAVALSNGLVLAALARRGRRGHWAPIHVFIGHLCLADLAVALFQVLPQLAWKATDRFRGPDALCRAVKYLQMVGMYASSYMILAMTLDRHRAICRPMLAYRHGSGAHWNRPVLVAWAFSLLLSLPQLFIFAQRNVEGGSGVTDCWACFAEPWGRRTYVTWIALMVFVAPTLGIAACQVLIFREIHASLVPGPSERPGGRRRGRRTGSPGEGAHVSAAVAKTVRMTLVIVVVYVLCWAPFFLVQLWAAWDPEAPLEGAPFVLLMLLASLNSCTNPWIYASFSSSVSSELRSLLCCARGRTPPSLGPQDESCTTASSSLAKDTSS
T2 sequence (P37288 whole entry): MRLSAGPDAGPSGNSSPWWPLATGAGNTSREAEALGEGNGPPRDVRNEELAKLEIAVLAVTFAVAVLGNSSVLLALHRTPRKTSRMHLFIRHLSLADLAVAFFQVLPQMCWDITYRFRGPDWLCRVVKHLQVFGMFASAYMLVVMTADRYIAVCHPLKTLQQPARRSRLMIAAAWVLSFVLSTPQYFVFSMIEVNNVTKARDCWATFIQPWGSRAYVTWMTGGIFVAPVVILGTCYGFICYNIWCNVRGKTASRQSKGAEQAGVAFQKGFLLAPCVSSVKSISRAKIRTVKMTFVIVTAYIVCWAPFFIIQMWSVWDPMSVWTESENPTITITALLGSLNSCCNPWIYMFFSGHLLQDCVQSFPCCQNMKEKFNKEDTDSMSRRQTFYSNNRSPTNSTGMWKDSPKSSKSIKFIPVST
T1 sequence (Q00788 whole entry): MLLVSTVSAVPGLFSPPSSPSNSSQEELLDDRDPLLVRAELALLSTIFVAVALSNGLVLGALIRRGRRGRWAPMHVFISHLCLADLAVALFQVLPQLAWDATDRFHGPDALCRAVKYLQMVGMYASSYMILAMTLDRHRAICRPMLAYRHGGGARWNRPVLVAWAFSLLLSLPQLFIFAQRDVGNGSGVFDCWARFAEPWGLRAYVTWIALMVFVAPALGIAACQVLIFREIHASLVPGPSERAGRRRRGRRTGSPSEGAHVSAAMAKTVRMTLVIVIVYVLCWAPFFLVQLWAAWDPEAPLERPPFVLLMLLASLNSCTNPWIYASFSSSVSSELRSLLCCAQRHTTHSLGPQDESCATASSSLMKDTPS

Compound: NC(=O)CC[C@@H]1NC(=O)[C@H](Cc2ccccc2)NC(=O)[C@H](Cc2ccc(O)cc2)NC(=O)[C@@H](N)CSSC[C@@H](C(=O)N2CCC[C@H]2C(=O)N[C@@H](CCCN=C(N)N)C(=O)NCC(N)=O)NC(=O)[C@H](CC(N)=O)NC1=O [Arginine vasopressin, AVP, arginine vasopressin]
Efficacy (rat V2 receptor (rV2R) [1]): 100%
Fluid retention / vascular leak (fluid balance) (sheep model of sepsis): showed symptoms of vascular leak syndrome; also recorded: less effective
Mean arterial pressure (MAP) (sheep model of sepsis): efficacious in maintaining mean arterial pressure; also recorded: less effective

Efficacy [2]: 66%
EC50 [2]: 124 nM
Efficacy (human V2 receptor (hV2R) [3]): 79%
EC50 (human V2 receptor (hV2R) [3]): 121 nM
Compound: NCCCC[C@H](NC(=O)[C@@H]1CCCN1C(=O)[C@@H]1CSSC[C@H](NC(=O)CNC(=O)CNC(=O)CN)C(=O)N[C@@H](Cc2ccc(O)cc2)C(=O)N[C@@H](Cc2ccccc2)C(=O)N[C@@H](CCC(N)=O)C(=O)N[C@@H](CC(N)=O)C(=O)N1)C(=O)NCC(N)=O [H-Gly3-LVP, terlipressin, terlipressin] (H-GGGCYFQNCPKG-NH2; disulfide 4-9)

Efficacy (rat V2 receptor (rV2R) [1]): 99%
EC50 (rat V2 receptor (rV2R) [1]; 5 hours): 1.11 nM
Efficacy (rat V1a receptor (rV1aR) [4]): 99%
EC50 (rat V1a receptor (rV1aR) [4]; 5 hours): 0.2 nM
Efficacy [2]: 98%
EC50 [2]: 0.94 nM
Efficacy (human V2 receptor (hV2R) [3]): 92%
EC50 (human V2 receptor (hV2R) [3]): 0.28 nM
Compound: NCCCC[C@H](NC(=O)[C@@H]1CCCN1C(=O)[C@@H]1CSSC[C@H](N)C(=O)N[C@@H](Cc2ccc(O)cc2)C(=O)N[C@@H](Cc2ccccc2)C(=O)N[C@@H](CCC(N)=O)C(=O)N[C@@H](CC(N)=O)C(=O)N1)C(=O)NCC(N)=O [Lysine Vasopressin, LVP, lysine vasopressin]

Compound: Cc1nc2c([nH]1)-c1ccccc1N(C(=O)c1ccc(NC(=O)c3ccccc3-c3ccccc3)cc1)CC2 [conivaptan]
Efficacy Antag [5]: 81%
Efficacy Antag (rat V1a receptor (rV1aR) [6]): 99%
Efficacy Antag (human V2 receptor (hV2R) [7]): 92%
Efficacy Antag (rat V2 receptor (rV2R) [8]): 97%

Compound: NC(=O)CC[C@@H]1NC(=O)[C@H](Cc2ccccc2)NC(=O)[C@H](Cc2ccc(O)cc2)NC(=O)CCSSC[C@@H](C(=O)N2CCC[C@H]2C(=O)N[C@H](CCCN=C(N)N)C(=O)NCC(N)=O)NC(=O)[C@H](CC(N)=O)NC1=O [desmopressin]
Fluid retention / vascular leak (fluid balance) (sheep model of sepsis): decreased the effectiveness of the V1a agonist to the level of AVP
Mean arterial pressure (MAP) (sheep model of sepsis): decreased the effectiveness of the V1a agonist to the level of AVP
peak Lp with PAF in presence of desmopressin relative to peak Lp with PAF alone ([9]; desmopressin 10 pM for 40 minutes): not increased
peak Lp with PAF in presence of desmopressin relative to peak Lp with PAF alone ([9]; desmopressin 30 pM for 40 minutes, ±0.4 SEM, n=8): 2.1 fold
peak Lp with PAF in presence of desmopressin relative to peak Lp with PAF alone ([9]; desmopressin 100 pM for 40 minutes, ±0.9 SEM, n=5): 2.8 fold

Compound: Cc1ccccc1C(=O)Nc1ccc(C(=O)N2CCCC(N(C)C)c3ccccc32)cc1 (stereo not drawn) [mozavaptan]
Efficacy Antag [5]: 85%
Efficacy Antag (rat V1a receptor (rV1aR) [6]): 40%
Efficacy Antag (human V2 receptor (hV2R) [7]): 107%
Efficacy Antag (rat V2 receptor (rV2R) [8]): 85%

Efficacy Antag [5]: 10%
Ki [5, 10]: > 950 nM
Efficacy Antag (rat V1a receptor (rV1aR) [6]): 6%
Ki (rat V1a receptor (rV1aR) [6]): > 338 nM
Efficacy Antag (human V2 receptor (hV2R) [7]): 109%
Ki (human V2 receptor (hV2R) [7]; [10]): 1.5 nM
Efficacy Antag (rat V2 receptor (rV2R) [8]): 100%
Ki (rat V2 receptor (rV2R) [8]): 0.6 nM
Compound: CCOc1ccc2c(c1)C1(CCC(OCCN3CCOCC3)CC1)C(=O)N2S(=O)(=O)c1ccc(C(=O)NC(C)(C)C)cc1OC (stereo not drawn) [satavaptan]

Efficacy Antag [5]: 101%
Efficacy Antag (rat V1a receptor (rV1aR) [6]): 26%
Ki (rat V1a receptor (rV1aR) [6]): > 338 nM
Efficacy Antag (human V2 receptor (hV2R) [7]): 97%
Efficacy Antag (rat V2 receptor (rV2R) [8]): 102%
Ki (rat V2 receptor (rV2R) [8]): 3.3 nM
Compound: Cc1ccccc1C(=O)Nc1ccc(C(=O)N2CCCC(O)c3cc(Cl)ccc32)c(C)c1 (stereo not drawn) [tolvaptan]

Compound: [Pmp1,D-Ile2,Ile4,Arg8]vasopressin [[Pmp1, D-Ile2, Ile4]AVP]
Efficacy Antag (rat V2 receptor (rV2R) [8]): 97%

Compound: [Pmp1,D-Ile2,Ile4,Arg8]vasopressin-(1-8)-OH [[Pmp1, D-Ile2, Ile4]AVP-(1-8)-OH]
Efficacy Antag (rat V2 receptor (rV2R) [8]): 105%

Compound: ornithine vasopressin [[Orn8] Vasopressin, OVP]
Efficacy (rat V2 receptor (rV2R) [1]): 111%
